From PubChem BioAssay (NCI)
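Compound exposure: 48 hours, 5 concentrations, 96-well plates. GI50: concentration for 50% inhibition of growth. TGI marks complete inhibition of growth.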

Columns and labels:
Assay in all cases: NCI tumour cell line growth inhibition, 48 h
NCI-H226 lung = system: NCI-H226 lung
NCI-H23 lung = system: NCI-H23 lung
NCI-H460 lung = system: NCI-H460 lung
NCI-H522 lung = system: NCI-H522 lung
NCI/ADR-RES ovarian = system: NCI/ADR-RES ovarian
OVCAR-3 ovarian = system: OVCAR-3 ovarian
OVCAR-4 ovarian = system: OVCAR-4 ovarian
OVCAR-5 ovarian = system: OVCAR-5 ovarian
OVCAR-8 ovarian = system: OVCAR-8 ovarian
PC-3 prostate = system: PC-3 prostate
RPMI-8226 leukemia = system: RPMI-8226 leukemia
RXF 393 renal = system: RXF 393 renal
SF-268 CNS = system: SF-268 CNS
SF-295 CNS = system: SF-295 CNS
SF-539 CNS = system: SF-539 CNS
SK-MEL-2 melanoma = system: SK-MEL-2 melanoma
SK-MEL-28 melanoma = system: SK-MEL-28 melanoma
SK-MEL-5 melanoma = system: SK-MEL-5 melanoma
SK-OV-3 ovarian = system: SK-OV-3 ovarian
SN12C renal = system: SN12C renal
SNB-19 CNS = system: SNB-19 CNS
SNB-75 CNS = system: SNB-75 CNS
SR leukemia = system: SR leukemia
SW-620 colon = system: SW-620 colon
T-47D breast = system: T-47D breast
TK-10 renal = system: TK-10 renal
U251 CNS = system: U251 CNS
UACC-257 melanoma = system: UACC-257 melanoma
UACC-62 melanoma = system: UACC-62 melanoma
UO-31 renal = system: UO-31 renal

How did the TGI (NCI-H226 lung) turn out when `COC(=O)c1c(C(=O)OC)c2n(c1C)[C@@H]([C@@H](C)[C@H]1CC[C@H]3[C@@H]4CCC5=CC(=O)CC[C@]5(C)[C@H]4CC[C@]13C)SC2` was run?
The TGI was 61.8 µM.

What about the GI50 (NCI-H23 lung) of the same molecule?
The GI50 was 3.79 µM.

What about the TGI (NCI-H23 lung) of the same molecule?
Its TGI is over 100 µM.

What about the GI50 (NCI-H460 lung) of the same molecule?
Its GI50 is 5.25 µM.

And the TGI (NCI-H460 lung)?
The TGI was over 100 µM.

What about the GI50 (NCI-H522 lung) of the same molecule?
Its GI50 is 2.55 µM.

What about the TGI (NCI-H522 lung) of the same molecule?
Its TGI is 53.8 µM.

And the GI50 (NCI/ADR-RES ovarian)?
Its GI50 is 3.13 µM.

What about the TGI (NCI/ADR-RES ovarian) of the same molecule?
Its TGI is over 100 µM.

What about the GI50 (OVCAR-3 ovarian) of the same molecule?
Its GI50 is 5.08 µM.

And the TGI (OVCAR-3 ovarian)?
Its TGI is over 100 µM.

And the GI50 (OVCAR-4 ovarian)?
The GI50 was 3.05 µM.

What about the TGI (OVCAR-4 ovarian) of the same molecule?
The TGI was over 100 µM.

And the GI50 (OVCAR-5 ovarian)?
The GI50 was 4.67 µM.

And the TGI (OVCAR-5 ovarian)?
The TGI was over 100 µM.

And the GI50 (OVCAR-8 ovarian)?
The GI50 was 3.32 µM.

And the TGI (OVCAR-8 ovarian)?
The TGI was over 100 µM.

What about the GI50 (PC-3 prostate) of the same molecule?
Its GI50 is 2.31 µM.

What about the TGI (PC-3 prostate) of the same molecule?
Its TGI is over 100 µM.

What about the GI50 (RPMI-8226 leukemia) of the same molecule?
The GI50 was 1.56 µM.

And the TGI (RPMI-8226 leukemia)?
Its TGI is over 100 µM.

What about the GI50 (RXF 393 renal) of the same molecule?
The GI50 was 8.82 µM.

And the TGI (RXF 393 renal)?
The TGI was 52.4 µM.

And the GI50 (SF-268 CNS)?
Its GI50 is 6.58 µM.

What about the TGI (SF-268 CNS) of the same molecule?
Its TGI is over 100 µM.

What about the GI50 (SF-295 CNS) of the same molecule?
Its GI50 is 2.68 µM.

What about the TGI (SF-295 CNS) of the same molecule?
The TGI was 27.9 µM.

What about the GI50 (SF-539 CNS) of the same molecule?
Its GI50 is 7.07 µM.

What about the TGI (SF-539 CNS) of the same molecule?
The TGI was 84.1 µM.

And the GI50 (SK-MEL-2 melanoma)?
Its GI50 is 4.02 µM.

What about the TGI (SK-MEL-2 melanoma) of the same molecule?
Its TGI is over 100 µM.

And the GI50 (SK-MEL-28 melanoma)?
Its GI50 is 4.34 µM.

And the TGI (SK-MEL-28 melanoma)?
The TGI was over 100 µM.

And the GI50 (SK-MEL-5 melanoma)?
Its GI50 is 1.53 µM.

What about the TGI (SK-MEL-5 melanoma) of the same molecule?
Its TGI is 3.68 µM.

And the GI50 (SK-OV-3 ovarian)?
Its GI50 is 29.3 µM.

What about the TGI (SK-OV-3 ovarian) of the same molecule?
Its TGI is over 100 µM.

What about the GI50 (SN12C renal) of the same molecule?
Its GI50 is 4.06 µM.

And the TGI (SN12C renal)?
The TGI was over 100 µM.

And the GI50 (SNB-19 CNS)?
Its GI50 is 8.15 µM.

And the TGI (SNB-19 CNS)?
Its TGI is over 100 µM.

And the GI50 (SNB-75 CNS)?
Its GI50 is 11.3 µM.

And the TGI (SNB-75 CNS)?
The TGI was 49.7 µM.

And the GI50 (SR leukemia)?
The GI50 was 3.5 µM.

What about the TGI (SR leukemia) of the same molecule?
The TGI was over 100 µM.

What about the GI50 (SW-620 colon) of the same molecule?
Its GI50 is 7.25 µM.

And the TGI (SW-620 colon)?
Its TGI is over 100 µM.

And the GI50 (T-47D breast)?
Its GI50 is 2.1 µM.

And the TGI (T-47D breast)?
The TGI was over 100 µM.

And the GI50 (TK-10 renal)?
Its GI50 is 6.34 µM.

What about the TGI (TK-10 renal) of the same molecule?
The TGI was over 100 µM.

What about the GI50 (U251 CNS) of the same molecule?
Its GI50 is 4.56 µM.

What about the TGI (U251 CNS) of the same molecule?
The TGI was over 100 µM.

And the GI50 (UACC-257 melanoma)?
Its GI50 is 3.22 µM.

And the TGI (UACC-257 melanoma)?
The TGI was over 100 µM.

And the GI50 (UACC-62 melanoma)?
The GI50 was 2.21 µM.

And the TGI (UACC-62 melanoma)?
The TGI was over 100 µM.

What about the GI50 (UO-31 renal) of the same molecule?
Its GI50 is 2.91 µM.

What about the TGI (UO-31 renal) of the same molecule?
The TGI was over 100 µM.
